Laboratory results as given in PMC6389962 (Nature Communications, 2019).
Starred links: 1 amine or outer side, 2 acyl side, 3 side chain; linkers in the order of their positions; H or OH if unused. Positions of bridges follow the written chain, without caps; N, C: chain ends. Residues, ends and D or L forms follow the SMILES beside them. Chains are numbered I, II in the order given. X3 = C[C@@H](CNC(=O)[*:1])NC(=O)NC[C@H](CCC(=O)O)NC(=O)NC[C@H](Cc1ccc(O)cc1)N[*:2]

How the values were obtained:
in vitro [1] = details: isolated enzyme neprilysin, pH 8
Method: Stock solutions of the oligomers were prepared at a concentration of 400 µM in a solution of 50 mM HEPES buffer, 50 mM NaCl, 0.05% Tween-80, pH 8.0. Stock solution of NEP 24.11 was prepared at a concentration of 100 µg mL^−1 in water. Stability of oligomers to NEP 24.11 was assessed by conducting protease reaction in a 96-well plates at 20 °C. […] Each compound was also incubated in the absence of the enzyme (12 µL of HEPES buffer and 38 µL of oligomer). […] A portion of the quenched reaction solution was analysed by HPLC. The time course of peptide degradation was determined by integrating the area of each peak in a series of HPLC traces.

mouse GLP-1 receptor [2] = molecular target: T1, mouse GLP-1 receptor (Mus musculus, UniProt O35659)
T1 sequence (O35659 22-463): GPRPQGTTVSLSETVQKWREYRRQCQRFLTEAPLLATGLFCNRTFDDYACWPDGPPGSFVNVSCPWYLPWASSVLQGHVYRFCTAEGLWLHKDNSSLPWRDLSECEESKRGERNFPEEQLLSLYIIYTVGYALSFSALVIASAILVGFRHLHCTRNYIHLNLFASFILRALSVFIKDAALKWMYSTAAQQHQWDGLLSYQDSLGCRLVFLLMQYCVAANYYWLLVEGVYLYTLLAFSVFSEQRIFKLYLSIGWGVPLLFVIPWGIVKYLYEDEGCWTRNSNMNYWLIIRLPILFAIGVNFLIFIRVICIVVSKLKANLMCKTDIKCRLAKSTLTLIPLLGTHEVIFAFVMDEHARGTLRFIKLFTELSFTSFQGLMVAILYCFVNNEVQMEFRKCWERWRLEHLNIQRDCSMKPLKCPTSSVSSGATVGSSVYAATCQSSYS

normal mice (C57BL/6J) = experiment: Blood glucose study in normal fed mice; assay type: in vivo, mouse; design: key to In vivo activity (indicator): + active; +++: + + + more active
Method: In the first study, we evaluated the effect of the analogues on the blood glucose concentration of normal mice (Fig. 3). The fed mice were treated with the analogues and their blood glucose concentration was monitored before and after dosing for 6 h. […] Indeed, a decrease of blood glucose concentration is observed after 30 min and the effect is preserved for 4 h after dosing.
Fig. 3 Blood glucose study in mice. a–c Blood glucose concentration in normal mice (C57BL/6J, male, 20–25 g, n = 3) before and after dosing: 5 μg per mouse (50 nmol kg^−1) i.v. Formulation: 20 μg mL^−1 in PBS 1×. The dosing was done at T0. Data are mean ± SEM. […] Source data are provided as a Source Data file
After the acclimation period (at least 5 days), mice (male C57BL/6J mice (Charles River laboratories) 8 weeks old, 20–25 g) were randomized into 10 groups (n = 3 per group) according to their body weight. They were acutely treated via i.v. route at 10 am (5 µg per mouse). Blood glucose was measured before dosing and at 30 min, 1, 2, 4, 6 h after dosing in fed conditions.

in vitro [3] = details: mouse, plasma, pH 7.4, % remaining analogue
Method: The oligomer was then diluted 1/50 with a solution of plasma/PBS pH 7.4 (1:1) to afford a final concentration of 5 µM and incubated at 37 °C (4 µL of the stock solution was diluted with 196 µL of plasma/PBS, pH 7.4, 1:1). Each compound was also incubated in the absence of plasma (196 µL of H2O/PBS, pH 7.4, 1:1). At the indicated time (20 min and 60 min) an aliquot of 70 µL was removed from each experimental reaction and pipetting into 175 µL of acetonitrile at 0 °C to quench the reaction (t = 0 min was determined using the reaction without plasma). The samples were frozen at –80 °C before analysis. The frozen samples were defrosted, stirred with a vortex 5 min and finally centrifuged 5 min at 16 °C (1500 × g). The supernatant was analysed by LC-MS. The time course of oligomer degradation was determined by integrating the area of the peak in the extracted ion chromatogram.
Supplementar y Figur e 2 : Mouse plasma degradation assay. […] Data are
mean ± SEM, n = 4. Source data are provided as a Source Data file (T able 2 tab).
Supplementar y Figur e 3.
Data are mean ± SEM, n = 3.
Source data are provided as a Source Data file […]

mouse GLP-1 receptor [4] = molecular target: T1, mouse GLP-1 receptor; experiment: cell-based
db/db mice = experiment: Blood glucose study in db/db mice; assay type: in vivo, mouse; details: n = 5, 200 μg kg−1 (50 nmol kg−1) intraperitoneal, fed
Text: Data are mean ± SEM. […] Source data are provided as a Source Data file

Row | Compound | half-life (in vitro [1]) [min] | LogEC50 (best-fit value) (mouse GLP-1 receptor [2]) | Potency (%), percentage of potency compare to GLP-1-G^2 (mouse GLP-1 receptor [2]; cAMP production, from EC50) [%] | In vivo activity (indicator) (normal mice (C57BL/6J); mice, 50 nmol kg−1 i.v.) | effect on blood glucose concentration (normal mice (C57BL/6J); normal fed C57BL/6J mice, n = 3, 5 μg per mouse (50 nmol kg−1) i.v., monitored 6 h) | remaining at 20 min, 5 µM (in vitro [3]) [%] | remaining at 1 h, 5 µM (in vitro [3]) [%] | EC50 (mouse GLP-1 receptor [4]) [nM] | Emax (mouse GLP-1 receptor [4]; read-out: Top (best-fit value), variable slope four-parameter fit, unconstrained, 14: experiment 1) [%] | activity on blood glucose 48 h after a single dose (db/db mice)
1 | CC[C@H](C)[C@H](NC(=O)[C@H](Cc1ccccc1)NC(=O)[C@H](CCC(=O)O)NC(=O)[C@H](CCCCN)NC(=O)[C@H](C)NC(=O)[C@H](C)NC(=O)NC[C@H](C)NC(=O)NC[C@H](CCC(=O)O)NC(=O)NC[C@H](Cc1ccc(O)cc1)NC(=O)[C@H](Cc1ccc(O)cc1)NC(=O)[C@H](CO)NC(=O)[C@H](CO)NC(=O)[C@@H](NC(=O)[C@H](CC(=O)O)NC(=O)[C@H](CO)NC(=O)[C@@H](NC(=O)[C@H](Cc1ccccc1)NC(=O)[C@@H](NC(=O)CNC(=O)[C@H](CCC(=O)O)NC(=O)CNC(=O)[C@@H](N)Cc1c[nH]cn1)[C@@H](C)O)[C@@H](C)O)C(C)C)C(=O)N[C@@H](C)C(=O)N[C@@H](Cc1c[nH]c2ccccc12)C(=O)N[C@@H](CC(C)C)C(=O)N[C@H](C(=O)N[C@@H](CCCCN)C(=O)NCC(=O)N[C@@H](CCCNC(=N)N)C(=O)NCC(N)=O)C(C)C [compound 9, GG2[Y^uE^uA^u]^14-17] (I: AAKEFIAWLVKGRG-NH2 / II: H-HGEGTFTSDVSSY; linker I:N-II:C via X3) | 180 | -9.749 | 135 | + | showed efficacy but no improvement | 33.1 | 11.7 | 0.18 | 88.2 | –
2 | CCCCCCCCCCCCCCCC(=O)N[C@@H](CCC(=O)NCCCC[C@H](NC(=O)[C@H](C)NC(=O)[C@H](C)NC(=O)[C@H](CCC(N)=O)NC(=O)CNC(=O)[C@H](CCC(=O)O)NC(=O)[C@H](CC(C)C)NC(=O)[C@H](Cc1ccc(O)cc1)NC(=O)[C@H](CO)NC(=O)[C@H](CO)NC(=O)[C@@H](NC(=O)[C@H](CC(=O)O)NC(=O)[C@H](CO)NC(=O)[C@@H](NC(=O)[C@H](Cc1ccccc1)NC(=O)[C@@H](NC(=O)CNC(=O)[C@H](CCC(=O)O)NC(=O)[C@H](C)NC(=O)[C@@H](N)Cc1c[nH]cn1)[C@@H](C)O)[C@@H](C)O)C(C)C)C(=O)N[C@@H](CCC(=O)O)C(=O)N[C@@H](Cc1ccccc1)C(=O)N[C@H](C(=O)N[C@@H](C)C(=O)N[C@@H](Cc1c[nH]c2ccccc12)C(=O)N[C@@H](CC(C)C)C(=O)N[C@H](C(=O)N[C@@H](CCCNC(=N)N)C(=O)NCC(=O)N[C@@H](CCCNC(=N)N)C(=O)NCC(=O)O)C(C)C)[C@@H](C)CC)C(=O)O [liraglutide] | – | – | – | – | – | – | – | – | – | no more significant activity
